Reference: US10472356B2, “Bicyclic ketone sulfonamide compounds” (AMGEN INC., priority 2015, dated 2019)

Columns and labels:
human Nav1.7 [1] = molecular target: T1, human Nav1.7 (Homo sapiens, UniProt Q15858); experiment: Nav 1.7 IWB In Vitro Assay (IonWorks Barracuda); assay type: cell-based; settings: HEK293 cells stably transfected with human Nav 1.7; IonWorks Barracuda population patch-clamp; cells clamped to −20 mV for 4 minutes with compound; 26th pulse; read-out: hNav1.7 IWB IC50
T1 construct: expressed in transfected cells; host or cells: HEK293
Method: Nav 1.7 IWB In Vitro Assay
HEK293 cells stably transfected with human Nav 1.7 were recorded in population patch-clamp mode with the IonWorks© Barracuda (IWB) automated electrophysiology system (Molecular Devices, LLC, Sunnyvale, Calif.). From a holding potential of −110 mV, sodium currents were elicited by a train of 26 depolarizations of 150 ms duration to −20 mV at a frequency of 5 Hz. Cells were then clamped to −20 mV for a period of 4 minutes in the presence of a single concentration of test compound. Following this compound incubation period, cells were clamped to −110 mV for three seconds to recover unbound channels and put through the same 26 pulse voltage protocol as above. Peak inward current during the 26th pulse to −20 mV in the presence of compound was divided by the peak inward current evoked by the 26th pulse to −20 mV in the absence of compound to determine percent inhibition. Concentration-response curves of percent inhibition as a function of concentration were generated to calculate IC50 values.

human Nav1.7 [2] = molecular target: T1, human Nav1.7; experiment: Nav 1.7 In Vitro PatchXpress (PX) Assay; assay type: cell-based; settings: HEK 293 cells stably transfected with human Nav1.7; PatchXpress whole cell voltage clamp; partially inactivated state (holding potential yielding 20 to 50% inactivation); read-out: hNav1.7 PX IC50
Method: Nav 1.7 In Vitro PatchXpress (PX) Assay
HEK 293 cells stably transfected with human Nav1.7 were recorded in whole cell voltage clamp mode with the PatchXpress automated electrophysiology system (Molecular Devices, LLC, Sunnyvale, Calif.). Compound effects were measured on a partially inactivated state of the sodium channel. Cells were clamped to a holding potential yielding 20 to 50% inactivation. To elicit sodium current, channels were activated by pulsing to −10 mV for 20 msec. This voltage protocol was repeated at a rate of 0.1 Hz throughout the experiment. A single concentration of test compound was applied to cells for a duration of 3 minutes. Peak sodium current was measured at the end of the compound addition period to determine percent inhibition. Three to five cells were tested per concentration, and IC50 curves were fitted to percent inhibition as a function of concentration.

T1 sequence (Q15858 whole entry): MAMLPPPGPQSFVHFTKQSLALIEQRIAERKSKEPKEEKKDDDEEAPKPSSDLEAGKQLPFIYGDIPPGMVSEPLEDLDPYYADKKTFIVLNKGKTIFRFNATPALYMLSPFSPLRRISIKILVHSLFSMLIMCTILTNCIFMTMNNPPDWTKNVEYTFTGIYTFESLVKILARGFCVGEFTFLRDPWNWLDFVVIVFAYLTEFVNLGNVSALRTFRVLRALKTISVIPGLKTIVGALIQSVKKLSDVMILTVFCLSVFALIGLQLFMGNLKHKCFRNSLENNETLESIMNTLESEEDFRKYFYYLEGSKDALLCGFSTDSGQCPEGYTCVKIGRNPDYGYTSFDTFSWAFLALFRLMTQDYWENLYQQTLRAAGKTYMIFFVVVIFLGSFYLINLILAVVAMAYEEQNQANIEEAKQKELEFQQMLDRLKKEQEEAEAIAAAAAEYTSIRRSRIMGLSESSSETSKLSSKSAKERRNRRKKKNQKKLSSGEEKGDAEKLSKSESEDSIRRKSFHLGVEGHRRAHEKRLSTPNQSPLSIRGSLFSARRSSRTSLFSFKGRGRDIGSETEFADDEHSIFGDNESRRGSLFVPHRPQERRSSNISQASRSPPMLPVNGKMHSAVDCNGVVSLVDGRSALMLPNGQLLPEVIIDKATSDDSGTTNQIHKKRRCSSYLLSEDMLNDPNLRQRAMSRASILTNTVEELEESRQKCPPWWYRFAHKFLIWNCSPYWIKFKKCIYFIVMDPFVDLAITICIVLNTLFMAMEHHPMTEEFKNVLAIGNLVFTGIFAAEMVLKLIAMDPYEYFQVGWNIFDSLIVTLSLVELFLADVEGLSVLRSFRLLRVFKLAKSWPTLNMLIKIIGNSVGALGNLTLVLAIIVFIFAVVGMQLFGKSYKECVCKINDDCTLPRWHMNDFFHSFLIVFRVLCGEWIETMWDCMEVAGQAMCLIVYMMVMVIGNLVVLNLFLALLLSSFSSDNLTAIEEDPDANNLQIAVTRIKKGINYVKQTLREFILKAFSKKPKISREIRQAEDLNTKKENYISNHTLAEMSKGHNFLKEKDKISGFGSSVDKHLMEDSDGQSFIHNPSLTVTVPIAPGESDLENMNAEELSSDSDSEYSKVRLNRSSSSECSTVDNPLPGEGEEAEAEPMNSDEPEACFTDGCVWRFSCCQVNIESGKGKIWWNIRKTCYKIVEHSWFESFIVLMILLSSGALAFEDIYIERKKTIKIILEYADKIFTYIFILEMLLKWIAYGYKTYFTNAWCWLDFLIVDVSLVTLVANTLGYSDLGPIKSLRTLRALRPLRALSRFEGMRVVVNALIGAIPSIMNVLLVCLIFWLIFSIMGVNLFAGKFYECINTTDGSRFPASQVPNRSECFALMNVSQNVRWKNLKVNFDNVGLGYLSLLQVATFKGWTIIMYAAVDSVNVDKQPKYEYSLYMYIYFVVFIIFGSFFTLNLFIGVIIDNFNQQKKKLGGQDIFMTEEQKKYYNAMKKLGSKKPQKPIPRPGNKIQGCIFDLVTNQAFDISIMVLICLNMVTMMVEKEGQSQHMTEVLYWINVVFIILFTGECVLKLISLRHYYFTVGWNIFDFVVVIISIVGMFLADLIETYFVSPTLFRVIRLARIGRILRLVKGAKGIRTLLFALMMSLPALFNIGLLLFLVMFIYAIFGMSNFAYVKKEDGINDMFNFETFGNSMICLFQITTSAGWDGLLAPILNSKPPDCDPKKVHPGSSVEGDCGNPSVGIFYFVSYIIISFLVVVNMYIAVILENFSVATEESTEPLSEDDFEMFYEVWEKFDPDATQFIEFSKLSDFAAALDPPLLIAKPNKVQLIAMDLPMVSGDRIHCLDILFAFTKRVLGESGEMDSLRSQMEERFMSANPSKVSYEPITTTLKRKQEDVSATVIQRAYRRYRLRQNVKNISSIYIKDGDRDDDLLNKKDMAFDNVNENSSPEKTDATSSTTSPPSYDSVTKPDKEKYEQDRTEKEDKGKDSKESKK

| SMILES | IC50 (human Nav1.7 [1]) | IC50 (human Nav1.7 [2]) |
| --- | --- | --- |
| COc1cc(Br)c(Cl)cc1-n1c2c(ccc1=O)CN(S(=O)(=O)Nc1ccon1)CC2 (racemic) [Preparation 8c, 1-(4-bromo-5-chloro-2-methoxyphenyl)-N-3-isoxazolyl-2-oxo-1,5,7,8-tetrahydro-1,6-naphthyridine-6(2H)-sulfonamide] | 2.88 µM |  |
| COc1cc(C(F)(F)F)ccc1-n1c2c(ccc1=O)CN(S(=O)(=O)Nc1ccon1)CC2 (racemic) [Example 26-(Rac), (Rac)-N-3-isoxazolyl-1-(2-methoxy-4-(trifluoromethyl)phenyl)-2-oxo-1,5,7,8-tetrahydro-1,6-naphthyridine-6(2H)-sulfonamide] |  | > 1 µM |
| COc1cc(CCC(F)(F)F)c(Cl)cc1-n1c2c(ccc1=O)CN(S(=O)(=O)Nc1cccnn1)CC2 (single isomer, unassigned) [Example 96-M, M-1-(5-chloro-2-methoxy-4-(3,3,3-trifluoropropyl)phenyl)-2-oxo-N-(pyridazin-3-yl)-1,2,7,8-tetrahydro-1,6-naphthyridine-6(5H)-sulfonamide] | 0.856 µM |  |
| COc1cc(-c2cc(F)c(F)c(F)c2)c(F)cc1-n1c2c(ccc1=O)CN(S(=O)(=O)Nc1cccnn1)CC2 [Example 46, P-2-oxo-N-3-pyridazinyl-1-(2,3′,4′,5′-tetrafluoro-5-methoxy-4-biphenylyl)-1,5,7,8-tetrahydro-1,6-naphthyridine-6(2H)-sulfonamide] |  | 0.102 µM |
| COc1cc(-c2ccc(Cl)c(C)c2)c(F)cc1-n1c2c(ccc1=O)CN(S(=O)(=O)Nc1cccnn1)CC2 (single isomer, unassigned) [Example 33-M, M-1-(4′-chloro-2-fluoro-5-methoxy-3′-methyl-4-biphenylyl)-2-oxo-N-3-pyridazinyl-1,5,7,8-tetrahydro-1,6-naphthyridine-6(2H)-sulfonamide] | > 10 µM |  |
| COc1cc(-c2ccc(Cl)c(C)c2)c(F)cc1-n1c2c(ccc1=O)CN(S(=O)(=O)Nc1ccncn1)CC2 [Example 1-P, P-1-(4′-chloro-2-fluoro-5-methoxy-3′-methyl-4-biphenylyl)-2-oxo-N-4-pyrimidinyl-1,5,7,8-tetrahydro-1,6-naphthyridine-6(2H)-sulfonamide] |  | 0.0296 µM |
| COc1cc(-c2cc(F)cc(Cl)c2)c(F)cc1-n1c2c(ccc1=O)CN(S(=O)(=O)Nc1ncns1)CC2 (single isomer, unassigned) [Example 5-M, M-1-(3′-chloro-2,5′-difluoro-5-methoxy-4-biphenylyl)-2-oxo-N-1,2,4-thiadiazol-5-yl-1,5,7,8-tetrahydro-1,6-naphthyridine-6(2H)-sulfonamide] | 0.726 µM |  |
| COc1cc(-c2cccc(C(F)(F)F)c2)c(F)cc1-n1c2c(ccc1=O)CN(S(=O)(=O)Nc1ccon1)CC2 (single isomer, unassigned) [Example 16-M, M-1-(2-fluoro-5-methoxy-3′-(trifluoromethyl)-4-biphenylyl)-N-3-isoxazolyl-2-oxo-1,5,7,8-tetrahydro-1,6-naphthyridine-6(2H)-sulfonamide] | 0.72 µM |  |
| COc1cc(-c2cc(F)cc(Cl)c2)c(F)cc1-n1c2c(ccc1=O)CN(S(=O)(=O)Nc1ccnc(C)n1)CC2 (single isomer, unassigned) [Example 6-M, M-1-(3′-chloro-2,5′-difluoro-5-methoxy-4-biphenylyl)-N-(2-methyl-4-pyrimidinyl)-2-oxo-1,5,7,8-tetrahydro-1,6-naphthyridine-6(2H)-sulfonamide] | 8.82 µM |  |
| COc1cc(C#CC2CCCC2)c(F)cc1-n1c2c(ccc1=O)CN(S(=O)(=O)Nc1ccon1)CC2 (single isomer, unassigned) [Example 34-M, M-1-(4-(cyclopentylethynyl)-5-fluoro-2-methoxyphenyl)-N-3-isoxazolyl-2-oxo-1,5,7,8-tetrahydro-1,6-naphthyridine-6(2H)-sulfonamide] | 9.72 µM |  |
| COc1cc(-c2cc(F)cc(F)c2)c(F)cc1-n1c2c(ccc1=O)CN(S(=O)(=O)Nc1cccc(F)n1)CC2 (single isomer, unassigned) [Example 14-M, M-N-(6-fluoro-2-pyridinyl)-2-oxo-1-(2,3′,5′-trifluoro-5-methoxy-4-biphenylyl)-1,5,7,8-tetrahydro-1,6-naphthyridine-6(2H)-sulfonamide] | 0.452 µM |  |
| COc1cc(Br)c(F)cc1-n1c2c(ccc1=O)CN(S(=O)(=O)Nc1ncccn1)CC2 (racemic) [Preparation 8a, 1-(4-bromo-5-fluoro-2-methoxyphenyl)-2-oxo-N-2-pyrimidinyl-1,5,7,8-tetrahydro-1,6-naphthyridine-6(2H)-sulfonamide] | 4.24 µM |  |
| COc1cc(-c2cc(F)cc(Cl)c2)c(F)cc1-n1c2c(ccc1=O)CN(S(=O)(=O)Nc1cc(C)ncn1)CC2 (single isomer, unassigned) [Example 4-M, M-1-(3′-chloro-2,5′-difluoro-5-methoxy-4-biphenylyl)-N-(6-methyl-4-pyrimidinyl)-2-oxo-1,5,7,8-tetrahydro-1,6-naphthyridine-6(2H)-sulfonamide] | 8.3 µM |  |
| COc1cc(Br)c(F)cc1-n1c2c(ccc1=O)CN(S(=O)(=O)Nc1cccnn1)CC2 (racemic) [Preparation 8b, 1-(4-bromo-5-fluoro-2-methoxyphenyl)-2-oxo-N-3-pyridazinyl-1,5,7,8-tetrahydro-1,6-naphthyridine-6(2H)-sulfonamide] | 1.12 µM |  |
| COc1cc(Br)c(F)cc1-n1c2c(ccc1=O)CN(S(=O)(=O)Nc1ccncn1)CC2 (single isomer, unassigned) [Preparation 8f-P, P-1-(4-bromo-5-fluoro-2-methoxyphenyl)-2-oxo-N-(pyrimidin-4-yl)-1,2,7,8-tetrahydro-1,6-naphthyridine-6(5H)-sulfonamide] | 0.193 µM |  |
| COc1cc(Br)c(F)cc1-n1c2c(ccc1=O)CN(S(=O)(=O)Nc1ccncn1)CC2 (single isomer, unassigned) [Preparation 8f-M, M-1-(4-bromo-5-fluoro-2-methoxyphenyl)-2-oxo-N-(pyrimidin-4-yl)-1,2,7,8-tetrahydro-1,6-naphthyridine-6(5H)-sulfonamide] | > 25 µM |  |

Results, then the compound that gave them:

| IC50 (human Nav1.7 [1]) | IC50 (human Nav1.7 [2]) | SMILES |
| --- | --- | --- |
| 1.21 µM |  | COc1cc(-c2cc(F)cc(Cl)c2)ccc1-n1c2c(ccc1=O)CN(S(=O)(=O)Nc1ccon1)CC2 (single isomer, unassigned) [Example 7-M, M-1-(3′-chloro-5′-fluoro-3-methoxy-4-biphenylyl)-N-3-isoxazolyl-2-oxo-1,5,7,8-tetrahydro-1,6-naphthyridine-6(2H)-sulfonamide] |
|  | 0.255 µM | COc1cc(-c2ccc(F)c(C)c2)c(F)cc1-n1c2c(ccc1=O)CN(S(=O)(=O)Nc1ccon1)CC2 (racemic) [Example 22-(Rac), (Rac)-1-(2,4′-difluoro-5-methoxy-3′-methyl-4-biphenylyl)-N-3-isoxazolyl-2-oxo-1,5,7,8-tetrahydro-1,6-naphthyridine-6(2H)-sulfonamide] |
| 2.95 µM |  | COc1cc(-c2cc(F)cc(Cl)c2)ccc1-n1c2c(ccc1=O)CN(S(=O)(=O)Nc1cccnn1)CC2 (single isomer, unassigned) [Example 8-M, M-1-(3′-chloro-5′-fluoro-3-methoxy-4-biphenylyl)-2-oxo-N-3-pyridazinyl-1,5,7,8-tetrahydro-1,6-naphthyridine-6(2H)-sulfonamide] |
| 0.462 µM |  | COc1cc(-c2ccc(Cl)c(C)c2)c(F)cc1-n1c2c(ccc1=O)CN(S(=O)(=O)Nc1ccon1)CC2 (single isomer, unassigned) [Example 24-M, M-1-(4′-chloro-2-fluoro-5-methoxy-3′-methyl-4-biphenylyl)-N-3-isoxazolyl-2-oxo-1,5,7,8-tetrahydro-1,6-naphthyridine-6(2H)-sulfonamide] |
| 1.48 µM |  | COc1cc(-c2cc(OC)c(-n3c4c(ccc3=O)CN(S(=O)(=O)Nc3ccon3)CC4)cc2F)ccc1C (single isomer, unassigned) [Example 58-M, M-1-(2-fluoro-3′,5-dimethoxy-4′-methyl-4-biphenylyl)-N-3-isoxazolyl-2-oxo-1,5,7,8-tetrahydro-1,6-naphthyridine-6(2H)-sulfonamide] |
| 0.768 µM |  | COc1cc(Br)c(Cl)cc1-n1c2c(ccc1=O)CN(S(=O)(=O)Nc1ccon1)CC2 (single isomer, unassigned) [Preparation 8c-P, P-1-(4-bromo-5-chloro-2-methoxyphenyl)-N-3-isoxazolyl-2-oxo-1,5,7,8-tetrahydro-1,6-naphthyridine-6(2H)-sulfonamide] |
| > 25 µM |  | COc1cc(Br)c(Cl)cc1-n1c2c(ccc1=O)CN(S(=O)(=O)Nc1ccon1)CC2 (single isomer, unassigned) [Preparation 8c-M, M-1-(4-bromo-5-chloro-2-methoxyphenyl)-N-3-isoxazolyl-2-oxo-1,5,7,8-tetrahydro-1,6-naphthyridine-6(2H)-sulfonamide] |
